Data from ChEMBL document CHEMBL3639218, “Bicyclic heterocycle compounds and their uses in therapy” (2015).

Key:
[1] = biological target: Baculoviral IAP repeat-containing protein 2 (Homo sapiens, UniProt Q13490); assay: In vitro Competitive Displacement Binding Assays : Modified SMAC peptides and compounds were tested for their ability to displace the fluorescent tracer from either XIAP, clAP-1 or clAP-2. BIR3 domains of clAP-1 , clAP-2 and XIAP were incubated with test compounds or SMAC based peptides and their respective peptide probes (Peptide Protein Research) in assay buffer (50mM Hepes pH 7.5, […] Tween-
[2] = biological target: E3 ubiquitin-protein ligase XIAP (Homo sapiens, UniProt P98170); assay: as above

| Structure (SMILES) | IC50 [1] | IC50 [2] |
| --- | --- | --- |
| COC[C@H]1CN[C@H](C)CN1CC(=O)N1CC(C)(C)c2cnc(CCC(C)C)cc21 | 0.016 µM | – |
| C[C@@H]1CN(CC(=O)N2CCc3ccc(Br)cc32)CCN1 | 40 µM | – |
| CC(C)[C@H]1CN[C@H](C)CN1CC(=O)N1CCc2ccc(Br)cc21 | – | 2400 nM |
